Laboratory results as given in US10111846B2, “S isomers of alpha-methyl-hydrocinnamic acid for the treatment of blood disorders” (priority 2009, dated 2018).
“And” between values parts separate entries of the source, which are not always exact repeats. Equal entries are not always repeated.

What was measured:
[1] = test system: sub-lethally irradiated mouse model; assay: Sub-lethally irradiated (6 Gy) mouse model, ANC; type: in vivo, mice; conditions: 500 mg/kg IP and 300 mg/kg IP after 6 Gy irradiation on day 0
Method: FIG. 9 is a graph of absolute neutrophil count (ANC) response to NaST7 (500 mg/kg IP and 300 mg/kg IP) after sub-lethal does of irradiation where mice were exposed to 6 Gy irradiation on day 0 and daily ST7 (enantiomer) was administered at two doses, beginning day 1.
In particular, absolute neutrophil count (ANC) increased after administration of NaST7 (500 mg/kg IP and 300 mg/kg IP) after sub-lethal does of irradiation (e.g., exposure to 6 Gy irradiation on day 0).

[2] = pH solubility profile; type: physicochemical
Method: Sodium a-methyl hydrocinnamate was added to DI water in excess to determine the saturation solubility in water. The samples (n=3) were shaken and vortexed for about two hours to dissolve sodium a-methyl hydrocinnamate. […] The pH of the saturated solution was determined to be about 10.4.
The pH of the saturated aqueous solution was successively adjusted to pH values of 8, 7, 6, and 5 using 50% v/v phosphoric acid to determine the saturation solubility of each pH. To determine the saturation solubility at each pH, the aqueous layer obtained at each pH was diluted further in water and analyzed by UV. The pH solubility data and plot are presented in Table 1 and FIG. 13A, respectively.

[3] = pH stability profile; type: physicochemical; conditions: for Assay, initial: unit assumed; for Assay, 1 Week 60° C. / Assay, 1 Week RT: in % (unit assumed)
Method: The pH stability profile was determined at pH values of 2, 5, 6, 7, 8, 9, and 13 respectively. A pH 7 phosphate buffer at a buffer concentration of 100 mM was initially prepared. Six different aliquots of this buffer were successively adjusted to pH values of 2, […], 6, 8, 9, and 13 using either 50% v/v phosphoric acid or 1N sodium hydroxide solution. Transferred 0.2 mL of sodium α-methyl hydrocinnamate stock solution and 1 mL of alcohol into a 10.0 mL volumetric flask was made up the volume with each of the seven buffer solutions to yield a final concentration of ˜4 mg/ml of sodium α-methyl hydrocinnamate.
Diluted 0.5 ml of each solution to 5 mL with diluent and analysed by HLPC per AM-013-RO to determine the initial concentration of sodium α-methyl hydrocinnamate. The solution was divided into two parts, one part was kept at room temperature (RT) and the other part was kept at 60° C. to evaluate the stability of sodium α-methyl hydrocinnamate.

[4] = Solubility in pH 4.7 acetate buffer; type: physicochemical; conditions: pH 4.7 acetate buffer (per USP), about 100 mg/mL
Method: The sodium α-methyl hydrocinnamate was added to pH 4.7 acetate buffer (per USP) at a concentration of about 100 mg/mL.

[5] = Solubility in citrate buffer containing 30% cyclodextrin; type: physicochemical
Method: Solubility of sodium a-methyl hydrocinnamate and buffer capacity of pH 5 citrate buffers prepared at four different buffer concentrations were evaluated as presented in Table 3.

[6] = Solubility in phosphate buffer containing 20% cyclodextrin; type: physicochemical; conditions: for Final pH (upon addition of drug): 250 mg/mL
Method: Phosphate buffer solutions at a target pH of 7 were prepared at buffer concentrations of 0.5M, 0.25M, and ˜0.1M, respectively. The buffer solutions contained 20% cyclodextrin.

[7] = pH solubility profile; type: physicochemical; conditions: 200 mg/mL
[8] = buffer pH 4*, pH 5* on addition of drug

CC(Cc1ccccc1)C(=O)[O-].[Na+] (stereo not drawn) [sodium α-methyl hydrocinnamate]
absolute neutrophil count (ANC) [1]: increased | saturation solubility in water ([2]; DI water, n=3): 655 mg/mL | Solubility, mg/mL, Average ([2]; pH (average) 5): 2.2 mg/mL | Solubility, mg/mL, Average ([2]; pH (average) 6): 2.8 mg/mL | Solubility, mg/mL, samples 1, 2, 3 ([2]; pH (average) 6): 2.7 mg/mL and 3.6 mg/mL and 2.2 mg/mL | Appearance ([2]; pH (average) 7): Turbid solution | Solubility, mg/mL, Average ([2]; pH (average) 7): 559.0 mg/mL | Solubility, mg/mL, samples 1, 2, 3 ([2]; pH (average) 7): 653.5 mg/mL and 579.7 mg/mL and 443.8 mg/mL | Appearance ([2]; pH (average) 8): Clear solution | Solubility, mg/mL, Average ([2]; pH (average) 8): 653.3 mg/mL | Solubility, mg/mL, samples 1, 2, 3 ([2]; pH (average) 8): 660.8 mg/mL and 663.6 mg/mL and 635.7 mg/mL | Appearance ([2]; pH (average) 10): Clear solution | Solubility, mg/mL, Average ([2]; pH (average) 10): 655.1 mg/mL | Solubility, mg/mL, samples 1, 2, 3 ([2]; pH (average) 10): 631.7 mg/mL and 700.4 mg/mL and 633.3 mg/mL | solubility in aqueous solution ([2]; pH values of 7 and below): almost insoluble | pH of the saturated solution ([2]; water): about 10.4 | pH, 1 Week 60° C. ([3]; buffer pH 2): 1.9 | pH, 1 Week RT ([3]; buffer pH 2): 2.2 | Assay, initial ([3]; buffer pH 2, ~4 mg/ml): 95.8% | Assay, 1 Week 60° C. ([3]; buffer pH 2): 81.2 | Assay, 1 Week RT ([3]; buffer pH 2): 99.8 | pH, 1 Week 60° C. [3, 8]: 5.1 | pH, 1 Week RT [3, 8]: 5.3 | Assay, 1 Week 60° C. [3, 8]: 102.3 | Assay, 1 Week RT [3, 8]: 102.9 | Assay, initial [3, 8]: 98.8% | pH, 1 Week 60° C. ([3]; buffer pH 6): 6.0 | pH, 1 Week RT ([3]; buffer pH 6): 6.3 | Assay, 1 Week 60° C. ([3]; buffer pH 6): 102.9 | Assay, 1 Week RT ([3]; buffer pH 6): 102.9 | Assay, initial ([3]; buffer pH 6): 97.2% | pH, 1 Week 60° C. ([3]; buffer pH 7): 6.9 | pH, 1 Week RT ([3]; buffer pH 7): 7.2 | Assay, 1 Week 60° C. ([3]; buffer pH 7): 99.6 | Assay, 1 Week RT ([3]; buffer pH 7): 100.7 | Assay, initial ([3]; buffer pH 7): 94% | pH, 1 Week 60° C. ([3]; buffer pH 8): 8.1 | pH, 1 Week RT ([3]; buffer pH 8): 8.3 | Assay, 1 Week 60° C. ([3]; buffer pH 8): 100.8 | Assay, 1 Week RT ([3]; buffer pH 8): 100.4 | Assay, initial ([3]; buffer pH 8): 97.9% | pH, 1 Week 60° C. ([3]; buffer pH 9): 9.0 | pH, 1 Week RT ([3]; buffer pH 9): 9.2 | Assay, 1 Week 60° C. ([3]; buffer pH 9): 101.6 | Assay, 1 Week RT ([3]; buffer pH 9): 102.2 | Assay, initial ([3]; buffer pH 9): 98.8% | pH, 1 Week 60° C. ([3]; buffer pH 13): 12.7 | pH, 1 Week RT ([3]; buffer pH 13): 12.8 | Assay, 1 Week 60° C. ([3]; buffer pH 13): 12.9 | Assay, 1 Week RT ([3]; buffer pH 13): 11.2 | Assay, initial ([3]; buffer pH 13): 23.2% | degradation ([3]; pH 2 solution stored for 1 week at 60° C.): About 20% | degradation ([3]; pH 13, initially): About 80% | degradation ([3]; pH 13, storage for 1 week at both room temperature and 60° C.): 90% | time stable ([3]; pH range of 2-9 at room temperature): at least 1 week | stability ([3]; pH range of 5 to 9 when stored at 60° C.): stable for at least one week | behaviour in acetate buffer [4]: observed to separate from the aqueous layer | change of pH of buffer solution upon addition of target concentration ([5]; 0.25M and 0.1M citrate buffer, 30% Trappsol): 1.5-2 units | solubility in citrate buffers of high concentrations ([5]; 0.5M and 1 M): not soluble | Solubility (appearance) ([5]; citrate buffer 0.1 M, 30% Captisol, initial pH 4.9, 100 mg/ml): Clear | Solubility (appearance) ([5]; citrate buffer 0.1 M, 30% Captisol, initial pH 4.9, 250 mg/ml): Clear | pH ([5]; citrate buffer 0.1 M, 30% Captisol, initial pH 4.9, after addition of drug): 7.3 | Solubility (appearance) ([5]; citrate buffer 0.1 M, 30% Trappsol, initial pH 5.1, 100 mg/ml): Clear | Solubility (appearance) ([5]; citrate buffer 0.1 M, 30% Trappsol, initial pH 5.1, 250 mg/ml): Clear | pH ([5]; citrate buffer 0.1 M, 30% Trappsol, initial pH 5.1, after addition of drug): 7.0 | Solubility (appearance) ([5]; citrate buffer 0.25 M, 30% Trappsol, initial pH 5.1, 100 mg/ml): Clear | Solubility (appearance) ([5]; citrate buffer 0.25 M, 30% Trappsol, initial pH 5.1, 250 mg/ml): Clear | pH ([5]; citrate buffer 0.25 M, 30% Trappsol, initial pH 5.1, after addition of drug): 6.5 | Solubility (appearance) ([5]; citrate buffer 1.0, 0.5, 0.25 M, 30% Captisol, initial pH 4.9, 100 mg/ml): Insoluble | Solubility (appearance) ([5]; citrate buffer 1.0, 0.5 M, 30% Trappsol, initial pH 5.1, 100 mg/ml): Insoluble | solubility in phosphate buffer solutions ([6]; 0.5M, 0.25M, ~0.1M, 20% cyclodextrin, target formulation concentration): observed to dissolve at the target formulation concentration | Final pH (upon addition of drug) ([6]; phosphate buffer 0.25 M, 20% Captisol, initial pH 6.3): 7.0 | Final pH (upon addition of drug) ([6]; phosphate buffer 0.25 M, 20% Trappsol, initial pH 6.3): 6.8 | Final pH (upon addition of drug) ([6]; phosphate buffer 0.5 M, 20% Captisol, initial pH 6.2): 6.8 | Final pH (upon addition of drug) ([6]; phosphate buffer 0.5 M, 20% Trappsol, initial pH 6.3): 6.7 | Final pH (upon addition of drug) ([6]; phosphate buffer ~0.1 M, 20% Captisol, initial pH 6.8): 7.9 | Final pH (upon addition of drug) ([6]; phosphate buffer ~0.1 M, 20% Trappsol, initial pH 6.8): 7.6 | pH of aqueous solution [7]: about 10
